Experimental data taken from patent US20200129582A1, “NOVEL PEPTIDES AND PEPTIDOMIMETICS” (UNIVERSITY OF AUCKLAND, priority 2016, published 2020).
Like-named read-outs stand apart in the source and are kept apart here.

Key:
[1] = biological target: T1, coupled gap junction channels in hCMVEC cells (Homo sapiens, UniProt P17302); format: cell-based
T1 construct: A confluent monolayer of hCMVECs was pre-incubated in Peptide5; endogenous in cells; host or cells: hCMVEC
Protocol: (§1) The hCMVEC cells were plated in 1 μg/cm^2 collagen I (Gibco) 12-well plate at a density of 0.4×10^6 cells per well, and cultured overnight. A confluent monolayer of hCMVECs was pre-incubated in Peptide5 (5-100 μM) dissolved in culture medium for 2 hours or 24 hours. CBX at a concentration of 100 μM was used as a positive control. Cells were washed three times with phosphate buffered saline (PBS) without Ca^2+ or Mg^2+. The cells were then incubated in 0.05% Lucifer Yellow (LY) (Sigma), a fluorescent dye that is transferred through coupled gap junction channels (el-Fouly et al., 1987, Experimental cell research 168:422-430), +/−Peptide5 dissolved in PBS, and scrape-wounded with a size 10 carbon steel surgical blade (Swann-Morton, England). Following 5-minute incubation at 37° C. in 95% O2 and 5% CO2 without light, the 0.05% LY solution was removed. Cells were rinsed four times with PBS with Ca^2+ or Mg^2+, and then fixed in 4% paraformaldehyde (PFA) in PBS at pH 7.4 for 10 minutes at room temperature. Cells were then washed 3 times in PBS to remove PFA before fluorescent imaging. Fluorescent images were visualised using a Nikon TE2000E inverted fluorescent microscope (10× magnification, 0.3 numerical aperture), and captured using a Digital Sight CCD camera and Eclipse Net software (Nikon). Three images within each well from three independent experiments were taken for analysis and the total number of cells showing dye uptake from those that had been loaded were counted manually by masked observers.
as §1, with “1987),” for “1987, Experimental cell research 168:422-430),”

[2] = biological target: T2, Connexin43 plaques in ARPE-19 cells (Homo sapiens, UniProt P17302); test: Immunocytochemistry and quantification of Cx43 plaques; format: cell-based; conditions: for Connexin43 labelling per cell compared to untreated control (in words): 2- or 6-hour treatment, Peptide5 50-500 μM, LaCl3 and CBX 500 μM; for distribution of Connexin43 plaques: Peptide5 500 μM, FIG. 1A; for total Connexin43 expression reduced by, relative to the control: 500 μM
T2 construct: a cell line with high endogenous expression of connexin43; endogenous in cells; host or cells: ARPE-19
Protocol: (§2) ARPE-19 cells were grown until confluent in 8-well glass chamber-slides (BD Falcon). Confluent monolayers of ARPE-19 cells were incubated at a final concentration of 50 to 500 μM Peptide5, 500 μM LaCl3 and 500 μM CBX in culture medium for 2 or 6 hours. Cells were fixed in 4% PFA (ProSciTech) at pH 7.4 for 10 min at room temperature, permeabilized with 0.05% Triton-X100 in PBS, and incubated in 10% normal goat serum to block non-specific labelling. Cells were rinsed three times with PBS containing 0.1 mM CaCl2 between each fixation, permeabilization, and blocking steps. Connexin43 polyclonal rabbit antibody (C6219, Sigma, 1:2000) was applied overnight, followed by a goat anti-rabbit Alexa Fluor® 568 secondary antibody (Invitrogen, 1:200) for 45 minutes. Nuclei were counterstained with DAPI (Invitrogen) at 10,000-fold dilution for 5 mins, and mounted with Citifluor™ mounting medium. Images were visualised and captured using an oil immersion lens (60× magnification, 1.35 numerical aperture) on an Olympus FV1000 upright confocal laser scanning microscope and Olympus FV10-ASW 4.0 software. The Transfluor feature in MetaXpress® Image acquisition and analysis software (Version 5.3.0.1, Molecular Devices) was used to quantify the total area of Connexin43 plaques per image.
as §2

[3] = biological target: T3, Connexin43 protein (hemichannels of hCMVEC cells) (Homo sapiens, UniProt P17302); format: cell-based
T3 construct: endogenous in cells; host or cells: hCMVEC (human cerebral microvascular endothelial cells)
Protocol: (§3) Peptide5 interacting site on the Connexin43 protein was determined using a competition assay. Extracellular loop sequences (Auspep, Australia) were dissolved in miliQ H2O were at a stock concentration of 1 mM […]. Extracellular loop sequences were mixed with the native Peptide5 at 1:1 ratio (100 μM), which was left for 1 hour at room temperature prior to the experiment to allow competitive binding to occur. Following 1-hour incubation, extracellular loop sequence and peptide5 mixture was dissolved in injury solution and exposed to hCMVEC cells for 2 hours using the ischaemia-reperfusion model described above. Extracellular medium was then collected for ATP measurement.
as §3, with “interaction sites” for “interacting site”

[4] = system: hemichannels and gap junction channels; conditions: O'Carroll et al., 2008; cited from earlier work
[5] = biological target: T3, Connexin43 protein (hemichannels of hCMVEC cells); format: cell-based; conditions: agent alone, 100 μM, FIG. 6, injury control 100±3.5%

T1 sequence (P17302 2-382 limits assumed): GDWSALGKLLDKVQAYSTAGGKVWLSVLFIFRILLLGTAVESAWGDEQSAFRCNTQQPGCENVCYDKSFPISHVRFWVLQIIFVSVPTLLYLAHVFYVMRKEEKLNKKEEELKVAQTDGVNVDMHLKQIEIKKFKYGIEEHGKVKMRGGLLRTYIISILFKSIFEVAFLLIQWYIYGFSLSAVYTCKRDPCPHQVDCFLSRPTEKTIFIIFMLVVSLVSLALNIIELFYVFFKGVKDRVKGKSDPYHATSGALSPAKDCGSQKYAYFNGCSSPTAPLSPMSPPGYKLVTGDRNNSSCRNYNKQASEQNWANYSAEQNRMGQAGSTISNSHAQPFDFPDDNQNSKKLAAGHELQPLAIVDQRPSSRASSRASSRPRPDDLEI
T2 sequence (P17302 2-382 limits assumed): as above
T3 sequence (P17302 2-382): as the sequence (P17302 2-382 limits assumed) above

Row | Compound | LY dye transfer compared to untreated control (in words) [1] | LY dye transfer, % of the untreated control [1] [%] | LY positive cells compared to the control [1] [%] | Connexin43 labelling per cell compared to untreated control (in words) [2] | distribution of Connexin43 plaques ([2]; 2-hour exposure) | distribution of Connexin43 plaques ([2]; 6-hour exposure) | ATP release, % of the injury control [3] [%] | high concentration that inhibits both hemichannel and gap junction channel function [4] [µM] | low concentrations that specifically inhibit hemichannels [4] [µM] | LY positive cells compared to the control ([1]; hCMVEC, 100 μM, 2-hour exposure, FIG. 2A) [%] | LY dye transfer, % of the untreated control ([1]; hCMVEC, 100 μM, 2-hour exposure, FIG. 5, untreated control 100±4.5%) [%] | LY dye transfer compared to native Peptide5 (in words) ([1]; hCMVEC, 100 μM, FIG. 2) | LY dye transfer compared to untreated control (in words) ([1]; hCMVEC, 100 μM, FIG. 2) | total Connexin43 expression reduced by, relative to the control ([2]; 2-hour exposure) [%] | total Connexin43 expression reduced by, relative to the control ([2]; after 6 hours) [%] | ATP release, % of the injury control [5] [%]
1 | VDCFLSRPTEKT [Peptide5] | significantly attenuated LY dye transfer | 79.4±3.9 | 56.2±2.6 | no significant difference | patterns of cytoplasmic streaming | fragmented | 54.1±4.4 | 500 | 5 to 50 |  |  |  |  |  |  | 
2 | CC1(C)[C@@H](OC(=O)CCC(=O)O)CC[C@]2(C)[C@H]3C(=O)C=C4[C@@H]5C[C@@](C)(C(=O)O)CC[C@]5(C)CC[C@@]4(C)[C@]3(C)CC[C@@H]12 [CBX, Carbenoxolone] |  |  |  | significant reduction |  |  |  |  |  | 16.3±1.1 | 15.3±1.8 | significantly more than the native Peptide5 | significantly reduced | 30.0±8.2 | 53.4±8.1 | 13.4±4.8
